{
  "source": "patent US12533360B2",
  "about": "“Inhibition of BRD proteins suppresses the phenotype of uterine fibroids” (The University of Chicago, priority 2021, dated 2026)",
  "key": {"[1]": {"system": "immortalized human leiomyoma cell line (HuLM)", "experiment": "BRD inhibitor screening by MTT cell proliferation assay, HuLM cells", "assay_type": "cell-based", "conditions": "24 hours and 48 hours", "procedure": "(§1) The immortalized human leiomyoma cell line (HuLM) and immortalized human uterine smooth muscle (UTSM) cells were cultured and maintained in phenol red-free, Dulbecco's Modified Eagle Medium: Nutrient Mixture F-12. The cells were grown at 37° C. and 5% CO2 in an incubator with saturating humidity.\n(§2) Cell proliferation was measured using a 3-(4,5-dimethylthiazol-2-yl)-2,5-diphenyltetrazolium bromide (MTT) assay. 2×10^4 UTSM or HuLM cells per well were seeded into 12-well tissue culture plates in the absence or presence of each BRD inhibitor from Table 1 for 24 hours or 48 hours. The inhibitors used in this assay were from the Epigenetic Library at the University of Illinois at Chicago. This assay was performed three times in triplicate."}, "[2]": {"system": "immortalized human uterine smooth muscle (UTSM) cells", "experiment": "BRD inhibitor screening by MTT cell proliferation assay, UTSM cells", "assay_type": "cell-based", "conditions": "24 hours and 48 hours", "procedure": "as §1, §2"}, "UTSM and HuLM cells": {"system": "UTSM and HuLM cells", "experiment": "Cell proliferation by trypan blue exclusion assay, HuLM versus UTSM cells", "assay_type": "cell-based, human", "conditions": "1-25 μM, 48 hours", "procedure": "Cell proliferation was measured using trypan blue exclusion assay. UTSM and HuLM cells (2×10^4 cells per well) were seeded into 12-well tissue culture plates. After 24 hours the cells were cultured in the absence or presence of the BRD inhibitor I-BET762 or (+)-JQ1 at a dose range from 1-25 μM for 48 hours. DMSO was used as a vehicle control. Cells were trypsinized, collected by centrifuge, and resuspended in serum-free medium. Equal volumes of 0.4% trypan blue and cell suspension were mixed and cells were counted using a hemacytometer."}, "HuLM cells [3]": {"system": "HuLM cells", "experiment": "RNA-sequencing / transcriptome analysis of treated HuLM cells", "assay_type": "cell-based, human", "conditions": "5 μM, 48 hr", "procedure": "To determine the mechanism underlying the inhibitory effect of BRD9 inhibition on the UFs, the HuLM cells were treated with BRD9 inhibitor I-BRD9 (5 μM, n=4), TP-472 (5 μM, n=3), and DMSO vehicle control (n=4) for 48 hr. RNA was isolated using Trizol. RNA quality and quantity were assessed using the Agilent bio-analyzer. Strand-specific RNA-SEQ libraries were prepared using a TruSEQ total RNA-SEQ library protocol (Illumina provided). Library quality and quantity were assessed using the Agilent bio-analyzer and libraries were sequenced using an Illumina NovaSEQ6000 (illumine provided reagents and protocols).\nA variety of R packages was used for this analysis. All graphics and data wrangling were handled using the tidyverse suite of packages (available from tidyverse.org). All packages used are available from the Comprehensive R Archive Network (CRAN), Bioconductor.org, or GitHub. The reads were mapped to the human reference transcriptome using STAR, version 2.6.1d, as previously described (Dobin et al., Bioinformatics 29 (1):15-21 (2013)). The quality of raw reads, as well as the results of STAR mapping, are generated using fastqc (available from bioinformatics.babraham.ac.uk/projects/fastqc/) and multiqc (available from multiqc.info). Raw reads were mapped to the human reference transcriptome using Salmon, version 1.4.0 (available from combine-lab.github.io/salmon/). After reading mapping with Salmon, Bioconductor (available from bioconductor.org/packages/release/bioc/html/tximport) was used to read Salmon outputs into the R environment. Annotation data from Gencode V34 was used to summarize data from transcript-level to gene-level."}, "HuLM cells [4]": {"system": "HuLM cells", "experiment": "Western immunoblot of HuLM cells after BRD inhibition treatment", "assay_type": "cell-based, human", "conditions": "0-25 μM, 48 hours", "description": "Cells were collected and lysed in RIPA lysis buffer with protease and phosphatase inhibitor cocktail (Thermo Scientific, Waltham, MA, USA), and the protein was quantified using the Bradford method (Bio-Rad Protein Assay kit). The antibodies used were: METTL3 (ab195352, Abcam), YTHDC1 (ab122340, Abcam), YTHDC2 (35440, Cell Signaling), YTHDF2 (ab220163, Abcam), BCL-2 (ab182858, Abcam), FN (26836, Cell Signaling), PCNA (GTX100539, Genetex), BRD2 (5848, cell signaling), BRD3 (ab50818, Abcam), BRD9 (58906, Cell Signaling). The antigen-antibody complex was detected with Trident Femto Western HRP substrate (GeneTex, Irvine, CA, USA). Specific protein bands were visualized using ChemiDoc XRS ? molecular imager (Bio-Rad, Hercules, CA, USA).\nHuLM cells were cultured in phenol red-free, 10% fetal bovine serum Dulbecco's Modified Eagle Medium: Nutrient Mixture F-12 at 37° C., 5% CO2 in the absence or presence of the BRD inhibitors I-BRD9 and TP-472 for 48 hours respectively. The concentrations of both inhibitors were used in the range of 0-25 μM. Cells were collected after treatment for Western immunoblot as described above."}},
  "data": [
    {"smiles": "Cn1cc(CCn2cnc(-c3cnn(C)c3)c2-c2ccc(C#N)cc2)cn1", "note": "[BAZ2-ICR]", "values": [
      {"measurement": "UF (HuLM) cell proliferation", "setting": "[1]", "value": "selectively inhibited UF"},
      {"measurement": "myometrial (UTSM) cell proliferation", "setting": "[2]", "value": "not myometrial cell proliferation"}
    ]},
    {"smiles": "CCNC(=O)C[C@@H]1N=C(c2ccc(Cl)cc2)c2cc(OC)ccc2-n2c(C)nnc21", "note": "[I-BET762]", "values": [
      {"measurement": "cellular proliferation, UF cells versus myometrium cells", "setting": "UTSM and HuLM cells", "value": "reduced cellular proliferation more potently in UF cells than myometrium cells in a dose dependent manner"}
    ]},
    {"smiles": "CCn1cc(-c2cccc(C(F)(F)F)c2)c2sc(C(=N)NC3CCS(=O)(=O)CC3)cc2c1=O", "note": "[I-BRD9]", "values": [
      {"measurement": "UF (HuLM) cell proliferation", "setting": "[1]", "value": "selectively inhibited UF"},
      {"measurement": "myometrial (UTSM) cell proliferation", "setting": "[2]", "value": "not myometrial cell proliferation"},
      {"measurement": "Hallmark analysis: pathway alteration in response to inhibition of BRD", "setting": "HuLM cells [3]", "value": "E2F, MYC Target, G2M checkpoint, and mitotic spindle pathways"},
      {"measurement": "pathways altered (bioinformatic analysis of RNA sequencing)", "setting": "HuLM cells [3]", "value": "altered the pathways related to biological processes, transcriptional factors"},
      {"measurement": "expression of YTHDC1", "setting": "HuLM cells [4]", "value": "dose-dependent downregulation"},
      {"measurement": "expression of YTHDC2", "setting": "HuLM cells [4]", "value": "dose-dependent downregulation"},
      {"measurement": "expression of YTHDF2", "setting": "HuLM cells [4]", "value": "dose-dependent downregulation"},
      {"measurement": "expression of anti-apoptosis protein BCL-2", "setting": "HuLM cells [4]", "value": "increased the expression of the anti-apoptosis protein BCL-2"},
      {"measurement": "fibronectin (FN) levels", "setting": "HuLM cells [4]", "value": "decreased FN levels"},
      {"measurement": "levels of PCNA (marker for cell proliferation)", "setting": "HuLM cells [4]", "value": "decreasing the levels of PCNA"}
    ]},
    {"smiles": "Cc1cc(=O)n(C)c2cc(N3C(=O)CC[C@H](NS(=O)(=O)CC(C)C)[C@H]3c3ccc(Cl)cc3)ccc12", "note": "[LP99]", "values": [
      {"measurement": "UF (HuLM) cell proliferation", "setting": "[1]", "value": "selectively inhibited UF"},
      {"measurement": "myometrial (UTSM) cell proliferation", "setting": "[2]", "value": "not myometrial cell proliferation"}
    ]},
    {"smiles": "CCCS(=O)(=O)c1nc(NC2CC2)cc(-c2ccc3c(ccn3C3CC(C)(C)NC(C)(C)C3)c2)n1", "note": "[NVS-CECR2-1]", "values": [
      {"measurement": "UF (HuLM) cell proliferation", "setting": "[1]", "value": "selectively inhibited UF"},
      {"measurement": "myometrial (UTSM) cell proliferation", "setting": "[2]", "value": "not myometrial cell proliferation"}
    ]},
    {"smiles": "CC(=O)c1cc(-c2cc(C(=O)NC3CC3)ccc2C)c2ncccn12", "note": "[TP-472]", "values": [
      {"measurement": "UF (HuLM) cell proliferation", "setting": "[1]", "value": "selectively inhibited UF"},
      {"measurement": "myometrial (UTSM) cell proliferation", "setting": "[2]", "value": "not myometrial cell proliferation"},
      {"measurement": "Hallmark analysis: pathway alteration in response to inhibition of BRD", "setting": "HuLM cells [3]", "value": "E2F, MYC Target, G2M checkpoint, and mitotic spindle pathways"},
      {"measurement": "pathways altered (bioinformatic analysis of RNA sequencing)", "setting": "HuLM cells [3]", "value": "altered the pathways related to biological processes, transcriptional factors"},
      {"measurement": "expression of METTL3", "setting": "HuLM cells [4]", "value": "dose-dependent downregulation"},
      {"measurement": "expression of YTHDC1", "setting": "HuLM cells [4]", "value": "dose-dependent downregulation"},
      {"measurement": "expression of YTHDC2", "setting": "HuLM cells [4]", "value": "dose-dependent downregulation"},
      {"measurement": "fibronectin (FN) levels", "setting": "HuLM cells [4]", "value": "decreased FN levels"},
      {"measurement": "levels of PCNA (marker for cell proliferation)", "setting": "HuLM cells [4]", "value": "decreasing the levels of PCNA"}
    ]}
  ]
}
